Experimental findings from PMC4586642, “CYP450 Enzyme-Mediated Metabolism of TCAS and Its Inhibitory and Induced Effects on Metabolized Enzymes in Vitro” (International Journal of Environmental Research and Public …, 2015) are described below.

One series concerns CYP1A. In words: Induction of CYP1A activity in sandwich-cultured rat hepatocytes (phenacetin probe). The note with it: 2.5 µM, 72 h. As for the experimental part: (§1) Rat primary hepatocytes were prepared according to a modified, two-step collagenase perfusion method. Viability of hepatocyte was determined by Trypan Blue exclusion. Only those hepatocyte preparations with viability greater than 90% were used for further studies. Hepatocyte suspensions were prepared with DMEM-F12 containing 10% FBS, 100 U/mL penicillin, 100 µg/mL streptomycin, 1 µM DEX and 4 µg/mL insulin. Then, hepatocyte suspensions were seeded into the pre-coated wells at a density of 1 × 10^6 cells/well in 24-well plates. […] Medium was changed daily. On day 4, the cultured hepatocytes were washed twice with Hank’s balanced salt solution containing 25 mM HEPES and incubated with 0.5 mL of the same buffer containing 50 μM phenacetin and 5 μM midazolam at 37 °C for 1h. At the end of incubation, 0.5 mL aliquots of the media were transferred to 1.5-mL test tubes and stored at −20 °C until analysis. All incubations were conducted in triplicate.
(§2) Results were analyzed by a two-factor ANOVA. A p < 0.05 was considered statistically significant. […] Microsoft Excel (Microsoft, Redmond, WA, USA) was used to calculate IC50 estimates by linear transformation of the raw data. The data were corrected for both background and control activities.

A further series relates to CYP3A. As to the kind of experiment: Induction of CYP3A activity in sandwich-cultured rat hepatocytes (midazolam probe). The note with it: 1 mM, 72 h. As for the experimental part: as §1, §2
The next series has as its target CYP1A2 (Homo sapiens, UniProt P05177). As to the kind of experiment: TCAS incubation with human liver microsomes plus CYP1A2-selective inhibitor. The note with it: pH 7.4, probe TCAS (100 µM). A general note: Liver microsomes are vesicles of endoplasmic reticulum, rich in cytochrome P450 enzymes.
Another series has as its system T1, CYP2B6 (2B6).
T1 construct: native enzyme in rat liver microsomes (RLMs)
As to the kind of experiment: Inhibition of isoform-selective probe metabolism (phenacetin 1A2, tolbutamide 2C9, bupropion 2B6, dextromethorphan 2D6, midazolam 3A) in rat liver microsomes (0.4 mg/mL) with an NADPH-generating system, 0.5-500 uM TCAS, 30 min at 37 °C, LC-MS/MS readout. It counts as biochemical. The note with it: SD, n = 3. As for the experimental part:
(§3) The inhibitory effects of TCAS on the activities of CYP1A2, CYP2C9, CYP2D6, CYP2B6 and CYP3A were tested in RLMs and HLMs using probes selective for each isoform. The reaction probes used were as follows: phenacetin for CYP1A2; tolbutamide for CYP2C9; dextromethorphan for CYP2D6; midazolam for CYP3A and bupropion for CYP2B6. Incubation conditions specific to each isoform were linear with time, substrate, and protein concentrations as detailed in our previous studies. Isoform-specific substrate probes were incubated in duplicate at 37 °C with RLMs and HLMs and an NADPH-generating system in the absence (control) or presence of various concentrations (0.5, 1.5, 5, 15, 50, 100, and 500 µM) of TCAS. A 5-min pre-incubation was carried out before the reaction was initiated by adding 0.4 mg/mL of RLMs and HLMs. After incubation for 30 min, the reaction was terminated with 400 μL of ice-cold stop solution.
(§4) Results were analyzed by a two-factor ANOVA. A p < 0.05 was considered statistically significant.

The test system of a further series is T2, CYP2C9 (2C9).
T2 construct: native enzyme in rat liver microsomes (RLMs)
The description is as above. It counts as biochemical. The note with it: SD, n = 3. The protocol: as §3, §4

The next series concerns T3, CYP2D6 (2D6).
T3 construct: native enzyme in rat liver microsomes (RLMs)
The series is described as above. The note with it: SD, n = 3. The series is classed as biochemical. As for the experimental part: as §3, §4

The test system of another series is T4, CYP3A4 (3A4).
T4 construct: native enzyme in rat liver microsomes (RLMs)
The series is described as above. The series is classed as biochemical. The note with it: SD, n = 3. As for the experimental part:
as §3, §4

Another series concerns the target CYP2C9 (Homo sapiens, UniProt P11712). In words: in vitro. The note with it: microsomes, pH 7.4.

Molecules are shown by their SMILES.

CYP1A2, sequence (P05177 whole entry): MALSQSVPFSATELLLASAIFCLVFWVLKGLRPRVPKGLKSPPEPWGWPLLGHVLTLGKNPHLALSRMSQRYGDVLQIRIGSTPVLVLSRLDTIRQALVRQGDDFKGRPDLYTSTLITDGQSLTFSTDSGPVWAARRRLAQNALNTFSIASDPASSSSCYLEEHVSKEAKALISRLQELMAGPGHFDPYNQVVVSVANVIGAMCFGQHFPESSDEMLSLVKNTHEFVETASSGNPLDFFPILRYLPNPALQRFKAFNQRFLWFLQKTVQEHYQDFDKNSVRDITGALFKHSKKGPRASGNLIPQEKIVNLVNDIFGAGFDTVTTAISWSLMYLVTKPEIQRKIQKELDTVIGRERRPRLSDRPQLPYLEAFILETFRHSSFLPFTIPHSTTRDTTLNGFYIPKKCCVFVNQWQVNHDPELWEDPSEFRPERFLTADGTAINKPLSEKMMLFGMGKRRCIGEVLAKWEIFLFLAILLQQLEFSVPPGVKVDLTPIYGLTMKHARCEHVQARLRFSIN
CYP2C9, sequence (P11712 whole entry): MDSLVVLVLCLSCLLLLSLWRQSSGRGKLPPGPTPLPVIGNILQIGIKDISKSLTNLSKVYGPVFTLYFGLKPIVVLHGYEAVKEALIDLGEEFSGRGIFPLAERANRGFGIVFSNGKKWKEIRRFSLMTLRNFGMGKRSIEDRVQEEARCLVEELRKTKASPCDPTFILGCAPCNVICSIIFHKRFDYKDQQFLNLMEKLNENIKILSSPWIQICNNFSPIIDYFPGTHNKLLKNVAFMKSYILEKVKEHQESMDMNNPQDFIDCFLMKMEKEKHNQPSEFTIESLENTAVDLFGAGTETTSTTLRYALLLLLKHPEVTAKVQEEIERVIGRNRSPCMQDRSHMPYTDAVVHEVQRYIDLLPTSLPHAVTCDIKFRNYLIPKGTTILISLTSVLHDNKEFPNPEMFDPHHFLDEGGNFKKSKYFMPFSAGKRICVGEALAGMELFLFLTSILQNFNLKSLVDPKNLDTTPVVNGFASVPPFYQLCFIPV
Description for CYP1A2: Inhibitor stock solutions prepared in appropriate solvents accounted for 0.4% organic solvent in the final incubation for 30 min at 37 °C with gentle shaking before stopping with 400 μL ice-cold stop solution (1:1 (v:v) mixture of acetonitrile and methanol) containing 50 ng/mL tolbutamide (IS). After vortexing for 30 seconds, and centrifugation at 16,000 g for 10 min, the supernatant was collected and analyzed by LC-MS/MS as described above. […] All incubations were conducted in triplicate.

For the compound `Cc1ccc2cc3c(ccc4ccccc43)c3c2c1CC3` [3-MC, 3-methylcholanthrene], in the series on CYP1A, the “mean induction of CYP1A activity compared with control cells” value turned out to be 23.8 fold.

For `CCC1(c2ccccc2)C(=O)NC(=O)NC1=O` [PB, phenobarbital], the “mean induction of CYP3A activity compared with control cells” value in the series on CYP3A amounted to 5.1 fold.

Take `O=c1cc(-c2ccccc2)oc2c1ccc1ccccc12` [α-Naphthoflavone]: the inhibition at 30 min, 6 µM on CYP1A2 worked out at 54.9%.

`O=S(=O)(O)c1cc2c(O)c(c1)Sc1cc(S(=O)(=O)O)cc(c1O)Sc1cc(S(=O)(=O)O)cc(c1O)Sc1cc(S(=O)(=O)O)cc(c1O)S2` [TCAS, Thiacalix[4]arene tetrasulfonate]: the 50% inhibitory concentration (IC50) was 1700 ± 103 µM in the series on CYP2B6 (2B6), 383 ± 23.5 µM with CYP2C9 (2C9), 196 ± 17.6 µM in the series on CYP2D6 (2D6) and 2420 ± 235 µM with CYP3A4 (3A4).

`Nc1ccc(S(=O)(=O)Nc2ccnn2-c2ccccc2)cc1` [sulfaphenazole] yielded an inhibition at 30 min, 60 µM on CYP2C9 of 51.7%.

The inhibition is the drop in the measured response relative to a control, in per cent. A word on the IC50: it is the point on the concentration scale where inhibition reaches its midpoint.
